Assay results reported in patent publication US10526357B2, “Pharmaceutical compounds” (Rafael Pharmaceuticals, Inc., priority 2014, dated 2020).

Tests used:
Type in all cases: cell-based
[1] = tested on: SF539 human gliosarcoma cells; assay: CellTiter Glo (CTG) cell viability assay, in vitro cell killing, SF539; settings: 24 h treatment, 0.5% serum and 0.05% DMSO, relative to untreated control; for viability at 50 µM: SF-539, 50 μM, read-out: % avg live cells @ 50 μM (% Viable Cells Remaining); for viability at 100 µM: SF-539, 100 μM, read-out: % avg live cells @ 100 μM (% Viable Cells Remaining)
Source text: (§1) The objective of this investigation was to assess the in vitro cell killing activities of analogs of lipoic acid in BXPC3 human pancreatic, H460 non small lung carcinoma, and SF539 human gliosarcoma cancer cells.
(§2) Three human tumor cell types, BXPC3 human pancreatic cancer, H460 non small lung carcinoma, and SF539 human gliosarcoma, were used in this investigation. The BXPC3 and H460 cells were originally obtained from American Type Cell Culture (ATCC). The SF539 cells were originally obtained from the NCI AIDS and Cancer Specimen Bank (ACSB). All tumor cells were maintained at 37° C. in a humidified 5% CO2 atmosphere in T75 tissue culture flasks containing 20 mL of Roswell Park Memorial Institute (RPMI) 1640 containing 2 mM L-glutamine, 10% FBS and 1% penicillin and streptomycin (100 IU/mL penicillin and 100 μg/mL streptomycin). The tumor cells were split at a ratio of 1:5 every 4-5 days by trypsinization and resuspended in fresh medium in a new flask. Cells were harvested for experiments at 70-90% confluency.
(§3) Stock solutions of each analog were prepared at a concentration of 200 and 100 mM in DMSO. Five μL of this solution was diluted in 10.0 mL of 0.5% serum containing RPMI media to give the desired 100 μM and 50 μM solutions in 0.05% DMSO.
(§4) The cancer cells were seeded at 4000 cells/well for H460 cells and 6000 cells/well for BXPC3 and SF 539 cells and incubated 24 hours. The killing activity of analogs was assayed at 50 μM and 100 μM concentrations. The tumor cells were treated for 24 hours with the test article, and after 24 hours of treatment the number of viable tumor cells was determined using the CTG assay.
(§5) The number of cells targeted for the study is 4×10^3 per well for H460 cells and 6×10^3 per well for BXPC3 and SF539 cells in 100 μL of medium. The actual number of cells were counted and seeded in the wells of a 96 well-plate. The cells were incubated for approximately 24 hours before addition of test article.
(§6) The media in the plate was removed by aspiration, and 100 μL of the test article at a final concentration of 50 μM or 100 μM was added to the cells. After exposure to the test articles for 24 hours, the number of viable cells in each well was determined and the percent of viable cells relative to control (in the absence of test article) were calculated. Additionally, a set of wells was treated with cell culture medium in the absence of cells to obtain a value for background luminescence. A separate set of cells was seeded at the same time in a clear 96-well plate and observed under the microscope at 24 hours, following addition of the test article to estimate the amount of cells present after treatment.
(§7) The number of viable cells was determined by using the CTG assay. Specifically, reagents were mixed and allowed to come to room temperature according to instructions from Promega, Inc. (Madison, Wis.). Cell plates were removed from the cell culture incubator and left on the bench for thirty minutes until they reached room temperature. 100 μL per well of CTG reagent was added with the 12-channel Eppendorf pipettor. The cells were lysed by shaking the plate for two minutes in a shaker. The cells were kept in room temperature for ten minutes to stabilize the luminescent signal. The luminescence was measured using the FLUOstar OPTIMA plate reader (BMG Labtech, Inc., Durham, N.C.).
(§8) Data from luminescence readings was copied onto EXCEL spreadsheets, and cell growth relative to untreated cells was calculated, using the following equation: […]

[2] = tested on: BXPC3 human pancreatic cancer cells; assay: CellTiter Glo (CTG) cell viability assay, in vitro cell killing, BXPC3; settings: 24 h treatment, 0.5% serum and 0.05% DMSO, relative to untreated control; for viability at 50 µM: BXPC-3, 50 μM, read-out: % avg live cells @ 50 μM (% Viable Cells Remaining); for viability at 100 µM: BXPC-3, 100 μM, read-out: % avg live cells @ 100 μM (% Viable Cells Remaining)
Source text: as §1, §2, §3, §4, §5, §6, §7, §8

[3] = tested on: H460 non small lung carcinoma cells; assay: CellTiter Glo (CTG) cell viability assay, in vitro cell killing, H460; settings: Homo sapiens, 24 h treatment, 0.5% serum and 0.05% DMSO, relative to untreated control; for viability at 50 µM: NCI-H460, 50 μM, read-out: % avg live cells @ 50 μM (% Viable Cells Remaining); for viability at 100 µM: NCI-H460, 100 μM, read-out: % avg live cells @ 100 μM (% Viable Cells Remaining)
Source text: as §1, §2, §3, §4, §5, §6, §7, §8

SMILES: N#CCCCCC(CCSCc1ccccc1)SCc1ccccc1 (stereo not drawn) [C]
- viability at 50 µM [1]: 74.9%
- viability at 100 µM [1]: 23.2%
- viability at 50 µM [2]: 70.9%
- viability at 100 µM [2]: 36.1%
- viability at 50 µM [3]: 69.8%
- viability at 100 µM [3]: 27.1%

SMILES: COCCCCCC(CCSCc1ccccc1)SCc1ccccc1 (stereo not drawn) [B]
- viability at 50 µM [1]: 99%
- viability at 100 µM [1]: 99%
- viability at 50 µM [2]: 84%
- viability at 100 µM [2]: 91%
- viability at 50 µM [3]: 97%
- viability at 100 µM [3]: 67%

SMILES: O=S(=O)(O)CCCCC(CCSCc1ccccc1)SCc1ccccc1 (stereo not drawn) [E]
- viability at 50 µM [1]: 0%
- viability at 100 µM [1]: 0%
- viability at 50 µM [2]: 0%
- viability at 100 µM [2]: 0%
- viability at 50 µM [3]: 0%
- viability at 100 µM [3]: 0.3%

SMILES: c1ccc(CSCCC(CCCCc2nn[nH]n2)SCc2ccccc2)cc1 (stereo not drawn) [D]
- viability at 50 µM [1]: 2.1%
- viability at 100 µM [1]: 0.1%
- viability at 50 µM [2]: 0.3%
- viability at 100 µM [2]: 3.9%
- viability at 50 µM [3]: 4.1%
- viability at 100 µM [3]: 2.7%

SMILES: CCCCCCC(CCSCc1ccccc1)SCc1ccccc1 (stereo not drawn) [A]
- viability at 50 µM [1]: 100%
- viability at 100 µM [1]: 98%
- viability at 50 µM [2]: 84%
- viability at 100 µM [2]: 75%
- viability at 50 µM [3]: 89%
- viability at 100 µM [3]: 70%

SMILES: O=C(O)CCOCC(CCSCc1ccccc1)SCc1ccccc1 (stereo not drawn) [G]
- viability at 50 µM [1]: 91.6%
- viability at 100 µM [1]: 30.3%
- viability at 50 µM [2]: 99.7%
- viability at 100 µM [2]: 41.7%
- viability at 50 µM [3]: 102%
- viability at 100 µM [3]: 37.6%
